Read-outs that look alike come from different tables or passages of the source.
Experiments:
[1] = test system: Fibroblast control cultures; conditions: by day 7
Experimental: The inhibitors were added on day 0 to the Opticells® on the day of first feeding (day 5 or 6). Thereafter, cultures were fed with regular media. Samples from the respective treatments and controls were collected on day 21 and analyzed.
Fibroblast control cultures containing 0, 10, 30 and 100 nM of α-amanitin were cultured for one week.

Neuroscreen® cells = assay: Neuroscreen cell neurite outgrowth assay; assay type: cell-based, rat; conditions: standard NGF response curve
Experimental: The Neuroscreen® cells responded by extending neurites.
Neuroscreen® cells were maintained prior to the interaction assay by routine culture on collagen coated plastic and subcultured at confluence using basal medium consisting of RPMI (Cat #10-040-CV, Mediatech), 4.0 mM Glutamine (CAT #25-005-CI, Mediatech) supplemented with 20% Horse Serum (Cat #35-030-CV, Mediatech), 10% Fetal Bovine Serum (Cat #35-010, Mediatech).
[…] Neuroscreen® cells were assayed for the formation of neurite process extension using immuno-staining for β-tubulin as follows. Cells were fixed after 4 days in culture by adding 10% v/v of 37% formaldehyde (Cat. #2106-01, J. T. Baker) directly to the culture medium in the well. […]
Only wells with cell counts above 100 cells per field were analyzed. […]
Human peripheral blood collected into ten 8 ml Vacutainer™ tubes containing K2EDTA was shipped overnight on ice and then placed vertically into a +4° C. fridge for 6 hours in order to allow the blood to gravity separate. […] After thoroughly mixing the contents of each conical tube, 10 ml quantities of the solutions were injected into separate sets of 5 Opticells™, and then placed horizontally into a 37° C., […], 2% O2, non-humidified incubator. […]

Molecule: CC[C@H](C)[C@@H]1NC(=O)CNC(=O)[C@@H]2Cc3c([nH]c4cc(O)ccc34)[S+]([O-])C[C@@H](NC(=O)CNC1=O)C(=O)N[C@@H](CC(N)=O)C(=O)N1C[C@H](O)C[C@H]1C(=O)N[C@@H]([C@@H](C)[C@@H](O)CO)C(=O)N2 (stereo in doubt) [α-amanitin]
- Mortality ([1]; 10 nM): 60-70%
- Mortality ([1]; 30 nM): 80-90%
- Mortality ([1]; 100 nM): ~100%

Molecule: NGF: nerve growth factor, positive control at 100 ng/ml
- Effect of fresh NGF at amounts less than 10 ng per well (Neuroscreen® cells): limited or no effect
- NGF amount at which maximal responses occur (Neuroscreen® cells; fresh NGF): 100 ng of NGF per well

Source: patent US9314420B2, “Acellular bioabsorbable tissue regeneration matrices” (priority 2005, dated 2016)
